Reference: patent US20240326041A1, “MICROFLUIDIC INDUCTION OF RESEARCH BASED NEURAL INJURY” (Worcester Polytechnic Institute, priority 2023, published 2024)

Legend:
hTRPV4 = hTRPV4 (Homo sapiens, UniProt Q9HBA0); details: commercially available TRPV4 antagonist, vendor description; cited from earlier work
rTRPV4 = rTRPV4 (Rattus norvegicus, UniProt Q9ERZ8); details: commercially available TRPV4 antagonist, vendor description; cited from earlier work
C. elegans [1] = test: Recovery of neural activity (AWA calcium imaging) after sonication-induced injury; assay type: in vivo; details: wild-type C. elegans, NAC-induced recovery
Method: FIGS. 8A-8C show results of test substances for treatment of an injury induced by the microfluidic device of FIGS. 1-4. Referring to FIGS. 8A-8C, one approach to therapeutic and/or prophylactic neural treatment includes two chemical agents that are diluted to physiological concentrations and administered in liquid form to the test animals using their food. Drug compositions are applied for a series of several hours to allow the biological function of the composition to manifest. Animals are removed from drug administration and allowed to immobilize under anesthetic for a period of ˜60 minutes in a microfluidic device before being injured. […] The described action of the drug composition is to inhibit the ability of calcium influx channels to operate for a period of time before and during the injury, allowing later recovery of the neuron response when the action of the drug composition ceases.

C. elegans [2] = test: Behavioral state after sonication-induced traumatic injury in microfluidic device; assay type: in vivo; details: 2 hour pre-exposure to 1 mM NAC; initial behavioral data
Method: To injure animals, a continuous flow of buffer fluid is pumped through a microfluidic device 120 having serpentine microchannels in a bath sonicator-induced cavitation field. Animals are trapped in the flow and directed through the cavitation field. Exposure time is determined by channel length and flow velocity. […] Animals are recovered on an agar plate 130 for further transfer and analysis using widefield or high-resolution microscopy, or encapsulated in hydrogel and assessed over time in presence of various pharmacological agents. […] A batch of test subjects is isolated and introduced via the buffer fluid 114 and suitable coupling 116, as depicted at step 404. The microfluidic device 120 including the post array 140 receives the test subjects 152-N, as shown at step 406. Computer-controlled bath sonication induces titratable cavitation conditions within a microfluidic post-array 140. […] Upon removal, animals may be assessed visually for behavioral state according to the following definitions: • Paralysis: movement phenotype characterized by no obvious gross bodily movement. • Twitch: movement phenotype characterized by shaking or convulsions of the body or a substantial part of the main body of the animal.

Chain of rTRPV4 (Q9ERZ8 whole entry): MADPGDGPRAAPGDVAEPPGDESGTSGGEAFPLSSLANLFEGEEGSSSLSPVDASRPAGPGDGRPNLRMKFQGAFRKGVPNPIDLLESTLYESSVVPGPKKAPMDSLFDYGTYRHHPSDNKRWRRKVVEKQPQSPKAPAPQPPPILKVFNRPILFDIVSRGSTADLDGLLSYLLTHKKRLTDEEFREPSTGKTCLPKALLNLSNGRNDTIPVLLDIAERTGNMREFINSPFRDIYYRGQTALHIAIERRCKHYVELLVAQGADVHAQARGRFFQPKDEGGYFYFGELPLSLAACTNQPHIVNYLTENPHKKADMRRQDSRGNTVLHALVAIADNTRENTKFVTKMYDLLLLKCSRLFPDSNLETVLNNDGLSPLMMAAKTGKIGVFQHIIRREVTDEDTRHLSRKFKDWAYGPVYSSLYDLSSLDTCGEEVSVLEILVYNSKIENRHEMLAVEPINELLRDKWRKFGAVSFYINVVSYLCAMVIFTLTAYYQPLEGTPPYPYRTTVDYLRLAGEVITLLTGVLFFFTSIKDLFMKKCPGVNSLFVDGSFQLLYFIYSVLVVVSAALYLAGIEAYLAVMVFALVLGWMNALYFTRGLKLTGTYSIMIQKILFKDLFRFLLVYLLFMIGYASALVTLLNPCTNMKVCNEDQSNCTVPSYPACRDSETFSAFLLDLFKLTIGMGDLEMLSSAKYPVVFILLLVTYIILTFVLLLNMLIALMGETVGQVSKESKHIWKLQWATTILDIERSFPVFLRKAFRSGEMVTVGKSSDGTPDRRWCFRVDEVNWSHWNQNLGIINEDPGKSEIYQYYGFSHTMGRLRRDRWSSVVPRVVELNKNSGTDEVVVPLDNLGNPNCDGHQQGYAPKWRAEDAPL
Chain of hTRPV4 (Q9HBA0 whole entry): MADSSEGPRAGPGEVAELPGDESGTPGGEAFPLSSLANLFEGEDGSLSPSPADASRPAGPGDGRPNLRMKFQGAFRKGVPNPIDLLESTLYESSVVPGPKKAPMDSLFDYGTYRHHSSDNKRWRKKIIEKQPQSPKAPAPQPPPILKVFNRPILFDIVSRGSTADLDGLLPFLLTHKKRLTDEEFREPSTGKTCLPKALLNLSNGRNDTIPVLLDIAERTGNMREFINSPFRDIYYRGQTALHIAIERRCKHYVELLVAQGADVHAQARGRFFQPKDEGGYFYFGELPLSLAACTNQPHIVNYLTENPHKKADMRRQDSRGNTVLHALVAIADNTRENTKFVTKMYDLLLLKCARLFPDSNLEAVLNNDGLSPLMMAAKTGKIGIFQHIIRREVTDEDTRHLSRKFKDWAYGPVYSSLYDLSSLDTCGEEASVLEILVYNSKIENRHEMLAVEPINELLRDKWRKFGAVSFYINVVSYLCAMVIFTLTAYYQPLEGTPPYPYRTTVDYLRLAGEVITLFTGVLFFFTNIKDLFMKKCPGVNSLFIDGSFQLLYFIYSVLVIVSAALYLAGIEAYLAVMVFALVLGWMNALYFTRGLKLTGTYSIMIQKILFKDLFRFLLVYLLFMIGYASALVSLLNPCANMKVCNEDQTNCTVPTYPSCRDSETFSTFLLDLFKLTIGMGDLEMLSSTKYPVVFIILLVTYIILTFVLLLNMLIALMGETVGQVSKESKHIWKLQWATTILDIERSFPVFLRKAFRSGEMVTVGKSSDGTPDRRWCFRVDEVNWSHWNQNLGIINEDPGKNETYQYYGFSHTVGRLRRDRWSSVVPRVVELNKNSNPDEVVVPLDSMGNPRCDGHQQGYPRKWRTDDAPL

SMILES: O=C(NC1(c2ccccc2)CC1)c1c(CN2CCC(N3CCCCC3)CC2)c(-c2cccc(C(F)(F)F)c2)nc2cc(Br)ccc12 [GSK2193874]
- IC50 (hTRPV4): 40 nM
- IC50 (rTRPV4): 2 nM

SMILES: CC(=O)N[C@@H](CS)C(=O)O [NAC, N-acetyl-L-cysteine]
- calcium transients on recovery after injury (C. elegans [1]): produces calcium transients similar to ‘osm’ mutants
- behavioral vulnerability after injury (C. elegans [2]): lessens behavioral vulnerability
